In the test the target is MVL (rMVL) (Microcystis viridis, UniProt Q9RHG4). It is filed as binding.

SMILES strings stand for the structures.

We go through one compound from paper PMC11203576 (International Journal of Molecular Sciences, 2024).

MVL (rMVL), sequence (Q9RHG4 2-114 limits assumed): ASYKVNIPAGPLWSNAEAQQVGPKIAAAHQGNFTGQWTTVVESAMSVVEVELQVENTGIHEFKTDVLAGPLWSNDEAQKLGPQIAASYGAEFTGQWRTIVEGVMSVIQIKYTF

As for `OC[C@H]1OC(O)[C@H](O)[C@@H](O)[C@H]1O` (stereo partly shown) [galactose], the “% SPR signal retained at 100 mM” value is ~ 40%.
